Measurements taken from the C3SDB collision cross section collection.
Values joined by “and” are separate entries in the source; they are usually repeats but may differ in a detail not shown here. Identical values can stand only once. Each block holds one compound with its values, some of them ahead of it.

Columns and labels:
[1] = instrument: DT, single field, calibrated with ESI Low Concentration Tuning Mix (Agilent)
[2] = instrument: TW, calibrated with polyalanine and drug standards

collision cross section (N2) ([1]; [M+]+): 126.2 Å²
Structure (SMILES): C[n+]1cccc(C(N)=O)c1 [1-METHYLNICOTINAMIDE]

collision cross section (N2) ([1]; [M+Na]+): 149.1 Å² and 157.8 Å² | collision cross section (N2) ([1]; [M-H]-): 155.2 Å²
Structure (SMILES): CC(=O)N[C@@H]1[C@@H](O)[C@H](O)[C@@H](CO)O[C@H]1N [2-ACETAMIDO-2-DEOXY-BETA-D-GLUCOSYLAMINE]

collision cross section (N2) ([1]; [M-H]-): 117.2 Å²
Structure (SMILES): CC[C@H](O)C(=O)O [2-HYDROXYBUTYRATE]

collision cross section (N2) ([1]; [M+Na-2H]-): 132.6 Å² | collision cross section (N2) ([1]; [M+Na]+): 137.4 Å² | collision cross section (N2) ([1]; [M-H]-): 126 Å²
Structure (SMILES): CC(CCC(=O)O)C(=O)O (configuration not stated) [2-METHYLGLUTARATE]

collision cross section (N2) ([1]; [M-H]-): 118.2 Å²
Structure (SMILES): C/C(=C/C(=O)O)C(=O)O [2-METHYLMALEATE]

collision cross section (N2) ([1]; [M+H]+): 134.3 Å² | collision cross section (N2) ([1]; [M+Na-2H]-): 133.1 Å² | collision cross section (N2) ([1]; [M+Na]+): 141.9 Å² | collision cross section (N2) ([1]; [M-H]-): 124.2 Å²
Structure (SMILES): O=C(O)C(CO)OP(=O)(O)O (configuration not stated) [2-PHOSPHOGLYCERATE]

collision cross section (N2) ([1]; [M-H]-): 122.5 Å²
Structure (SMILES): O=C(O)c1ccc([O-])c(O)c1 [3,4-DIHYDROXYBENZOATE]

collision cross section (N2) ([1]; [M+H]+): 198.5 Å² | collision cross section (N2) ([1]; [M+Na]+): 189.4 Å² | collision cross section (N2) ([1]; [M-H]-): 188.2 Å²
Structure (SMILES): N[C@@H](Cc1cc(I)c(Oc2ccc(O)cc2)c(I)c1)C(=O)O [3,5-DIIODO-L-THYRONINE]

Structure (SMILES): CC(C)c1ccc2c(c1O)CC[C@H]1C3=C(CC[C@]21C)C(=O)OC3 [TRIPTOPHENOLIDE]
collision cross section (N2) ([2]; [M+H]+): 179.4 Å²

collision cross section (N2) ([2]; [M+H]+): 259 Å²
Structure (SMILES): C[C@@H]1O[C@@H](OC[C@H]2O[C@@H](Oc3c(-c4ccc(OCCO)c(OCCO)c4)oc4cc(OCCO)cc(O)c4c3=O)[C@H](O)[C@@H](O)[C@@H]2O)[C@H](O)[C@H](O)[C@H]1O [TROXERUTIN]

Structure (SMILES): NCCc1c[nH]c2ccccc12 [TRYPTAMINE]
collision cross section (N2) ([2]; [M+H-H2O]+): 124.4 Å²

collision cross section (N2) ([2]; [M+H]+): 236 Å²
Structure (SMILES): COc1cc2c3cc1Oc1cc(ccc1O)C[C@@H]1c4c(cc(OC)c(O)c4Oc4ccc(cc4)C[C@@H]3N(C)CC2)CC[N+]1(C)C [TUBOCURARINE CHLORIDE]

Structure (SMILES): CC(C)[C@@H]1NC(=O)[C@H](C)OC(=O)[C@@H](C(C)C)NC(=O)[C@@H](C(C)C)OC(=O)[C@H](C(C)C)NC(=O)[C@H](C)OC(=O)[C@@H](C(C)C)NC(=O)[C@@H](C(C)C)OC(=O)[C@H](C(C)C)NC(=O)[C@H](C)OC(=O)[C@@H](C(C)C)NC(=O)[C@@H](C(C)C)OC1=O [VALINOMYCIN]
collision cross section (N2) ([2]; [M+H]+): 327.4 Å²

collision cross section (N2) ([2]; [M+H]+): 202 Å²
Structure (SMILES): CCCCC(=O)N(Cc1ccc(-c2ccccc2-c2nn[nH]n2)cc1)[C@H](C(=O)O)C(C)C [VALSARTAN]

collision cross section (N2) ([2]; [M+H]+): 156.4 Å²
Structure (SMILES): Nc1ncnc2c1ncn2[C@@H]1O[C@H](CO)[C@@H](O)[C@@H]1O [VIDARABINE]

collision cross section (N2) ([2]; [M+H]+): 180.9 Å²
Structure (SMILES): CC[C@]12CCCN3CCc4c(n(c5ccccc45)[C@@](O)(C(=O)OC)C1)[C@@H]32 [VINCAMINE]

collision cross section (N2) ([2]; [M+H]+): 135.9 Å²
Structure (SMILES): COc1cc(O)c(C(C)=O)c(OC)c1 [XANTHOXYLIN]

collision cross section (N2) ([2]; [M+H]+): 159.2 Å²
Structure (SMILES): CCCOc1ccccc1-c1nc2[nH][nH]nc-2c(=O)n1 [ZAPRINAST]

collision cross section (N2) ([2]; [M+H]+): 159.7 Å²
Structure (SMILES): CN(C)CCc1c[nH]c2ccc(C[C@H]3COC(=O)N3)cc12 [ZOLMITRIPTAN]

Structure (SMILES): CN1CCN(C(=O)OC2c3nccnc3C(=O)N2c2ccc(Cl)cn2)CC1 (configuration not stated) [ZOPICLONE]
collision cross section (N2) ([2]; [M+H]+): 186.5 Å²

collision cross section (N2) ([2]; [M+H]+): 205.9 Å²
Structure (SMILES): CC(=O)O[C@@H]1CC2C(C)(C)[C@H](O)CC[C@]2(C)C2CC[C@@]3(C)[C@H](c4ccoc4)OC(=O)C4OC43[C@@]21C (stereo partly drawn) [alpha-DIHYDROGEDUNOL]

collision cross section (N2) ([2]; [M+H]+): 198.8 Å²
Structure (SMILES): COc1c(O)cc2oc3cc(O)c(CC=C(C)C)c(O)c3c(=O)c2c1CC=C(C)C [alpha-MANGOSTIN]

collision cross section (N2) ([2]; [M+H]+): 230.2 Å²
Structure (SMILES): CC(=O)Oc1c(C)c(C)c2c(c1C)CCC(C)(CCCC(C)CCCC(C)CCCC(C)C)O2 (stereo not drawn) [alpha-TOCHOPHERYL ACETATE]

collision cross section (N2) ([2]; [M+H]+): 146.1 Å²
Structure (SMILES): CC12CCCC(O)(C1)C1CC(C)(C)C1CC2 (stereo not drawn) [beta-CARYOPHYLLENE ALCOHOL]
